Measurements reported in ChEMBL document CHEMBL1671617, “Correlation of antimicrobial resistance with beta-lactamases, the OmpA-like porin, and efflux pumps in clinical isolates of Acinetobacter baumannii endemic to New York City” (2008).
In brackets after ≈: the same amount, converted by molar mass.

test system: Acinetobacter baumannii; experiment: Antimicrobial activity against ISAba1 linked with the blaOXA-51-type beta-lactamase harboring Acinetobacter baumannii zeta clonal group isolate 21 expressing ampC, ompA, adeB, adeM, aacC2, blaSHV-5 by Etest method; type: functional

SMILES	MIC [µg/mL]
C[C@@H](O)[C@H]1C(=O)N2C(C(=O)O)=C(SCCNC=N)C[C@H]12 [IMIPENEM ANHYDROUS]	6 (≈ 20 µM)

test system: Acinetobacter baumannii; experiment: Antimicrobial activity against ISAba1 linked with the blaOXA-51-type beta-lactamase harboring Acinetobacter baumannii zeta clonal group isolate 22 expressing ampC, ompA, adeB, adeM, aadA1, aacA4, aacC2, blaSHV-5 by Etest method; type: functional

SMILES	MIC [µg/mL]
C[C@@H](O)[C@H]1C(=O)N2C(C(=O)O)=C(SCCNC=N)C[C@H]12 [IMIPENEM ANHYDROUS]	16 (≈ 53.4 µM)

test system: Acinetobacter baumannii; experiment: Antimicrobial activity against ISAba1 linked with the blaOXA-51-type beta-lactamase harboring Acinetobacter baumannii zeta clonal group isolate 23 expressing ampC, ompA, adeB, adeM, aadA1, aacA4, aacC2, aphA6 by Etest method; type: functional

SMILES	MIC [µg/mL]
C[C@@H](O)[C@H]1C(=O)N2C(C(=O)O)=C(SCCNC=N)C[C@H]12 [IMIPENEM ANHYDROUS]	> 32

test system: Acinetobacter baumannii; experiment: Antimicrobial activity against ISAba1 linked with the blaOXA-51-type beta-lactamase harboring Acinetobacter baumannii zeta clonal group isolate 24 expressing ampC, ompA, adeB, adeM, aadA1, aacA4, aacC2, blaSHV-5 by Etest method; type: functional

SMILES	MIC [µg/mL]
C[C@@H](O)[C@H]1C(=O)N2C(C(=O)O)=C(SCCNC=N)C[C@H]12 [IMIPENEM ANHYDROUS]	> 1.5

test system: Acinetobacter baumannii; experiment: Antimicrobial activity against ISAba1 linked with the blaOXA-51-type beta-lactamase harboring Acinetobacter baumannii zeta clonal group isolate 25 expressing ampC, ompA, adeB, adeM, aadA1, aacA4, aacC2, blaSHV-5 by Etest method; type: functional

SMILES	MIC [µg/mL]
C[C@@H](O)[C@H]1C(=O)N2C(C(=O)O)=C(SCCNC=N)C[C@H]12 [IMIPENEM ANHYDROUS]	> 1.5

test system: Acinetobacter baumannii; experiment: Antimicrobial activity against ISAba1 linked with the blaOXA-51-type beta-lactamase harboring Acinetobacter baumannii zeta clonal group isolate 26 expressing ampC, ompA, adeB, adeM, aadA1, aacA4, aacC2, blaSHV-5 by Etest method; type: functional

SMILES	MIC [µg/mL]
C[C@@H](O)[C@H]1C(=O)N2C(C(=O)O)=C(SCCNC=N)C[C@H]12 [IMIPENEM ANHYDROUS]	> 1.5

test system: Acinetobacter baumannii; experiment: Antimicrobial activity against Acinetobacter baumannii lambda clonal group isolate 27 expressing ampC, ompA, adeB, adeM, aadB, aadA1 by Etest method; type: functional

SMILES	MIC [µg/mL]
C[C@@H](O)[C@H]1C(=O)N2C(C(=O)O)=C(SCCNC=N)C[C@H]12 [IMIPENEM ANHYDROUS]	4 (≈ 13.4 µM)

test system: Acinetobacter baumannii; experiment: Antimicrobial activity against ISAba1 linked with the blaOXA-51-type beta-lactamase harboring Acinetobacter baumannii lambda clonal group isolate 28 expressing ampC, ompA, adeM, aadB, aadA1 by Etest method; type: functional

SMILES	MIC [µg/mL]
C[C@@H](O)[C@H]1C(=O)N2C(C(=O)O)=C(SCCNC=N)C[C@H]12 [IMIPENEM ANHYDROUS]	16 (≈ 53.4 µM)

test system: Acinetobacter baumannii; experiment: Antimicrobial activity against ISAba1 linked with the blaOXA-51-type beta-lactamase harboring Acinetobacter baumannii lambda clonal group isolate 29 expressing ampC, ompA, adeM, aadB, aadA1 by Etest method; type: functional

SMILES	MIC [µg/mL]
C[C@@H](O)[C@H]1C(=O)N2C(C(=O)O)=C(SCCNC=N)C[C@H]12 [IMIPENEM ANHYDROUS]	16 (≈ 53.4 µM)

test system: Acinetobacter baumannii; experiment: Antimicrobial activity against ISAba1 linked with the blaOXA-51-type beta-lactamase harboring Acinetobacter baumannii lambda clonal group isolate 30 expressing ampC, ompA, adeB, adeM, aadB, aadA1 by Etest method; type: functional

SMILES	MIC [µg/mL]
C[C@@H](O)[C@H]1C(=O)N2C(C(=O)O)=C(SCCNC=N)C[C@H]12 [IMIPENEM ANHYDROUS]	8 (≈ 26.7 µM)

test system: Acinetobacter baumannii; experiment: Antimicrobial activity against Acinetobacter baumannii nu clonal group isolate 31 expressing ampC, ompA, adeB, adeM, aadB, aadA2 by Etest method; type: functional

SMILES	MIC [µg/mL]
C[C@@H](O)[C@H]1C(=O)N2C(C(=O)O)=C(SCCNC=N)C[C@H]12 [IMIPENEM ANHYDROUS]	0.25 (≈ 0.835 µM)

test system: Acinetobacter baumannii; experiment: Antimicrobial activity against Acinetobacter baumannii nu clonal group isolate 32 expressing ampC, ompA, adeB, adeM, aadB, aadA2 by Etest method; type: functional

SMILES	MIC [µg/mL]
C[C@@H](O)[C@H]1C(=O)N2C(C(=O)O)=C(SCCNC=N)C[C@H]12 [IMIPENEM ANHYDROUS]	0.25 (≈ 0.835 µM)

test system: Acinetobacter baumannii; experiment: Antimicrobial activity against Acinetobacter baumannii nu clonal group isolate 33 expressing ampC, ompA, adeB, adeM by Etest method; type: functional

SMILES	MIC [µg/mL]
C[C@@H](O)[C@H]1C(=O)N2C(C(=O)O)=C(SCCNC=N)C[C@H]12 [IMIPENEM ANHYDROUS]	0.25 (≈ 0.835 µM)

test system: Acinetobacter baumannii; experiment: Antimicrobial activity against Acinetobacter baumannii nu clonal group isolate 34 expressing ampC, ompA, adeB, adeM by Etest method; type: functional

SMILES	MIC [µg/mL]
C[C@@H](O)[C@H]1C(=O)N2C(C(=O)O)=C(SCCNC=N)C[C@H]12 [IMIPENEM ANHYDROUS]	0.25 (≈ 0.835 µM)

test system: Acinetobacter baumannii; experiment: Antimicrobial activity against Acinetobacter baumannii eta clonal group isolate 35 expressing ampC, ompA, adeB, adeM by Etest method; type: functional

SMILES	MIC [µg/mL]
C[C@@H](O)[C@H]1C(=O)N2C(C(=O)O)=C(SCCNC=N)C[C@H]12 [IMIPENEM ANHYDROUS]	0.25 (≈ 0.835 µM)

test system: Acinetobacter baumannii; experiment: Antimicrobial activity against Acinetobacter baumannii eta clonal group isolate 36 expressing ampC, ompA, adeB, adeM by Etest method; type: functional

SMILES	MIC [µg/mL]
C[C@@H](O)[C@H]1C(=O)N2C(C(=O)O)=C(SCCNC=N)C[C@H]12 [IMIPENEM ANHYDROUS]	0.25 (≈ 0.835 µM)

test system: Acinetobacter baumannii; experiment: Antimicrobial activity against Acinetobacter baumannii unique clonal group isolate 37 expressing ampC, ompA, adeB, adeM by Etest method; type: functional

SMILES	MIC [µg/mL]
C[C@@H](O)[C@H]1C(=O)N2C(C(=O)O)=C(SCCNC=N)C[C@H]12 [IMIPENEM ANHYDROUS]	0.5 (≈ 1.67 µM)

test system: Acinetobacter baumannii; experiment: Antimicrobial activity against Acinetobacter baumannii unique clonal group isolate 38 expressing ampC, ompA, adeB, adeM by Etest method; type: functional

SMILES	MIC [µg/mL]
C[C@@H](O)[C@H]1C(=O)N2C(C(=O)O)=C(SCCNC=N)C[C@H]12 [IMIPENEM ANHYDROUS]	0.19 (≈ 0.635 µM)

test system: Acinetobacter baumannii; experiment: Antimicrobial activity against Acinetobacter baumannii unique clonal group isolate 39 expressing ampC, ompA, adeM by Etest method; type: functional

SMILES	MIC [µg/mL]
C[C@@H](O)[C@H]1C(=O)N2C(C(=O)O)=C(SCCNC=N)C[C@H]12 [IMIPENEM ANHYDROUS]	0.25 (≈ 0.835 µM)

test system: Acinetobacter baumannii; experiment: Antimicrobial activity against ISAba1 linked with the blaOXA-51-type beta-lactamase harboring Acinetobacter baumannii unique clonal group isolate 40 expressing ampC, ompA, adeB, adeM, aadA1, aacA4, aacC2, blaSHV-5 by Etest method; type: functional

SMILES	MIC [µg/mL]
C[C@@H](O)[C@H]1C(=O)N2C(C(=O)O)=C(SCCNC=N)C[C@H]12 [IMIPENEM ANHYDROUS]	> 32
